In patent US5155121A, “Phenylsulphonamide substituted pyridinealkene- and aminooxyalkanecarboxylic acid derivatives” (Bayer Aktiengesellschaft, priority 1990, dated 1992) one finds minimal effective concentration data, which are given here for six compounds.

A value given as a limit tells only on which side of the number the result lay.

The test system of this assay is platelet aggregation. Put plainly: Platelet aggregation-inhibiting action (TAI), collagen-induced, turbidometric, in platelet-rich citrate plasma. The conditions noted are these: Homo sapiens, 0.1 h, range of the minimum effective concentration, PRP from healthy donors, 37° C., 6 minutes, read-out: TAI threshold concentration. Format: cell-based. The method, then:
Blood from healthy donors of both sexes was used for the determination of the platelet aggregation-inhibiting action. As an anticoagulant, 9 parts of blood were admixed to one part of 3.8% strength aqueous sodium citrate solution. Platelet-rich citrate plasma (PRP)^1 is obtained from this blood by means of centrifugation (Jurgens/Beller, Klinische Methoden der Blutgerinnungsanalyse (Clinical Methods of Blood Coagulation Analysis); Thieme Verlag, Stuttgart, 1959).
For these investigations, 0.8 ml of (PRP)^1 and 0.1 ml of the active compound solution were preincubated in a water bath at 37° C. The platelet aggregation was then determined by the turbidometric method (Born, G.V.R., J. Physiol. (London), 162, 67, 1962) in an aggregometer at 37° C. (Therapeutische Berichte 47, 80-86, 1975). To this end, 0.1 ml of collagen, an aggregation-inducing agent, was added to the preincubated sample. The change in the optical density in the sample of the (PRP) was recorded during a period of 6 minutes and the result was determined after 6 minutes. To do this, the percentage inhibition was calculated compared to the control.
The range of the minimum effective concentration was given as the threshold concentration.
Consider `O=C(O)CCCCON=C(c1cccnc1)c1cccc(NS(=O)(=O)c2ccc(Cl)cc2)c1` (mixture of isomers) [Example I, (E/Z)-5-[[[3-Pyridinyl-3-(4-chlorophenylsulphonamido)phenyl]methylene]iminooxy]pentanecarboxylic acid], for which the minimal effective concentration fell in the range of 0.3 to 1 µg/mL. The figure for `O=C(O)CCCCC=C(c1cccnc1)c1cccc(NS(=O)(=O)c2ccc(Cl)cc2)c1` (mixture of isomers) [Example XV] is 3 to 10 µg/mL; for `O=C(O)CCCCCCON=C(c1cccnc1)c1cccc(NS(=O)(=O)c2ccc(Cl)cc2)c1` (mixture of isomers) [XIII, (E/Z)-7-[[[3-Pyridinyl-3-(4-chlorophenylsulphonamido)phenyl]methylene]iminooxy]heptane-carboxylic acid] it is more than 10 µg/mL; for `O=C(O)CCCCON=C(c1cccnc1)c1cccc(NS(=O)(=O)c2ccc(F)cc2)c1` [II] it is 1 to 3 µg/mL. The figure for `O=C(O)CCCCCON=C(c1cccnc1)c1cccc(NS(=O)(=O)c2ccc(Cl)cc2)c1` [XII] is 1 to 3 µg/mL. On to `O=C(O)CCCCCC(c1cccnc1)c1cccc(NS(=O)(=O)c2ccc(Cl)cc2)c1` (stereo not drawn) [XXVI], for which the minimal effective concentration fell in the range of 0.1 to 0.3 µg/mL.
